Results taken from patent publication US20240174693A1, “SOMATOSTATIN RECEPTOR SUBTYPE 4 (SSTR4) AGONISTS AND THEIR APPLICATIONS” (Humanwell Pharmaceutical US, priority 2022, published 2024).

Assays:
KM mice = experiment: Acetic acid induced writhing test; format: in vivo; conditions: 30 mg/kg s.c.; for No. of writhing's: 0.6% acetic acid 15 min after dosing, 30-minute period; for Percentage of Inhibition / Significant compared to the model group: writhing
Procedure: Fifteen minutes after administration, a 0.6% acetic acid solution (5 mL/kg) was injected into the abdominal cavity. The mice were then placed in an observation box, and the number of writhing episodes was recorded within a 30-minute period. The assessment of pain intensity was based on the observation of the mice's writhing behavior.

In vivo PK study = conditions: po, 3 mg/kg p.o.
SD rats = experiment: SD rat carrageenan acute inflammation model; format: in vivo; conditions: SD rat carrageenan
Procedure: Using an electronic caliper for accuracy, the thickness of the rat's footpad was measured. Rats were then restrained, and 100 μl of 1% carrageenan was subcutaneously injected into the right hind footpad to induce inflammation, thereby establishing an acute inflammation model using carrageenan. Each compound was administered in advance according to the respective dosing time points. The swelling of the rat's foot was measured at various time points: before modeling (0 h) and after modeling (2, 4, 7 h). A comparison was made between footpad swelling before and after modeling. […] The results of the carrageenan-induced acute inflammation model experiment are depicted in FIG. 1.

SSTR4 = biological target: T1, SSTR4 (Homo sapiens, UniProt P31391); experiment: FLIPR assay for agonists, HEK293/Gα15/SSTR4 cells; format: cell-based; conditions: read-out: SSTR4 Agonist Activity in FLIPR Assay EC50
T1 construct: host or cells: HEK293/Gα15/SSTR4
T1 sequence (P31391 whole entry): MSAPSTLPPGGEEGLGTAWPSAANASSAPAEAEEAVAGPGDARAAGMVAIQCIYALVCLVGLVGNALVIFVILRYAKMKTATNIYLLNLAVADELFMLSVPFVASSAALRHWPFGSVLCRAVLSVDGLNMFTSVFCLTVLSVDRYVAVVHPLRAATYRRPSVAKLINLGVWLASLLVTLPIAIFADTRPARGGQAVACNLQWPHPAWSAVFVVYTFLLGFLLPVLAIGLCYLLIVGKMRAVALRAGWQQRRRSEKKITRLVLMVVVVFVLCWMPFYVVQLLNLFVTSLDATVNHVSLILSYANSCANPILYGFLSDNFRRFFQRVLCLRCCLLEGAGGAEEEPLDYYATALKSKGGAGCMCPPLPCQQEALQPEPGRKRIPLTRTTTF
Procedure: The study was carried out at HD Biosciences (Shanghai, China) according to the following steps.
Step 1: Test compounds were diluted to a 400×stock solution in DMSO in a 384-well plate.
Step 2: 1 μL of the compound solution was transferred from Step 1 to 79 μL of assay buffer, creating a 5×working solution in the 384-well plate using the Bravo method.
Step 3: HEK293/Gα15/SSTR1-5 cells were cultured in DMEM medium (10% FBS).
Step 4: When cells reached 80% confluence, the cells were separated using 0.25% trypsin-EDTA.
Step 5: The cell density was measured and the cells diluted to 1×10^6/mL using DMEM (10% FBS).
Step 6: 30 μL of cells were dispensed into each well of a Matrigel-coated 384-well plate (Corning 3764#) using a multi-channel pipette (30,000 cells per well) and cultured for 20-24 hours at 37° C. and 5% CO2.
Step 7: 10 μL of dye was added to each well in the cell plate prepared in Step 6.
Step 8: The dye and cells were incubated in the dark at 37° C. and 5% CO2 for 1 hour.
Step 9: After 1 hour, the FLIPR program was loaded, the pipette tips placed cell plate and compound plate (from Step 2) into the machine, and the run button was pressed. The program added 10 μL to 40 μL to the cell plate. FLIPR was used to read the plate at room temperature according to the specified settings and the data was saved.

Row | Compound | No. of writhing's (KM mice) | Percentage of Inhibition (KM mice) [%] | Significant compared to the model group (KM mice) | Changes in Foot Swelling Rate (Mean ± SEM) (SD rats; 0 h (before modeling)) [%] | Foot Swelling Degrees (Mean ± SEM) (SD rats; 0 h (before modeling)) [mm] | Changes in Foot Swelling Rate (Mean ± SEM) (SD rats; 2 h after modeling) [%] | Foot Swelling Degrees (Mean ± SEM) (SD rats; 2 h after modeling) [mm] | Changes in Foot Swelling Rate (Mean ± SEM) (SD rats; 4 h after modeling) [%] | Foot Swelling Degrees (Mean ± SEM) (SD rats; 4 h after modeling) [mm] | Changes in Foot Swelling Rate (Mean ± SEM) (SD rats; 7 h after modeling) [%] | Foot Swelling Degrees (Mean ± SEM) (SD rats; 7 h after modeling) [mm] | further results
1 | CC(C)(NC(=O)[C@@H]1[C@@H]2C[C@H]1CN(C(=N)N)C2)c1nc(C2CC2)c2ccccn12 [Compound 22, (1R,5S,6r)-3-carbamimidoyl-N-(2-(1-cyclopropylimidazo[1,5-a]pyridin-3-yl)propan-2-yl)-3-azabicyclo[3.1.1]heptane-6-carboxamide] | 7 ± 2 | 82.45 ± 5.13 | Yes |  |  |  |  |  |  |  |  | AUC(0-t) (In vivo PK study): 1.3 ng·h/mL; Cmax (In vivo PK study): 5.56 ng/mL; MRT inf (In vivo PK study): 11.4 min; Tmax (In vivo PK study): 11.4 min
2 | COc1ccc(-c2cccn3c(C(C)(C)NC(=O)[C@H]4[C@@H]5CNC[C@H]4C5)ncc23)cc1 [Compound 12, (1R,5S,6r)-N-(2-(8-(4-methoxyphenyl)imidazo[1,5-a]pyridin-3-yl)propan-2-yl)-3-azabicyclo[3.1.1]heptane-6-carboxamide] | 10 | 54.16 | Yes |  |  |  |  |  |  |  |  | 
3 | CC(C)C[C@H](CN)CC(=O)O [Pregabalin] |  |  |  | 0 | 4.06 ± 0.07 | 41.54 ± 1.45 | 5.74 ± 0.09 | 35.68 ± 2.85 | 5.49 ± 0.09 | 37.64 ± 2.63 | 5.58 ± 0.13 | 
4 | CC(C)(NC(=O)[C@@H]1[C@@H]2CNC[C@H]1C2)c1ncc2c(Br)cccn12 [Compound 3, (1R,5S,6s)-N-(2-(8-bromoimidazo[1,5-a]pyridin-3-yl)propan-2-yl)-3-azabicyclo[3.1.1]heptane-6-carboxamide] |  |  |  |  |  |  |  |  |  |  |  | EC50 (SSTR4): > 1 µM
5 | CC(C)(NC(=O)[C@@H]1[C@@H]2C[C@H]1CN(C(=N)N)C2)c1ncc2c(Cl)cccn12 [Compound 21, (1R,5S,6r)-3-carbamimidoyl-N-(2-(8-chloroimidazo[1,5-a]pyridin-3-yl)propan-2-yl)-3-azabicyclo[3.1.1]heptane-6-carboxamide] | 9 | 71 | Yes |  |  |  |  |  |  |  |  | 
6 | CC(=O)Oc1ccccc1C(=O)O [Aspirin] |  |  |  | 0 | 4.08 ± 0.10 | 33.44 ± 4.56 | 5.42 ± 0.11 | 24.42 ± 6.86 | 5.05 ± 0.21 | 19.72 ± 3.24 | 4.87 ± 0.07 | 
